{
  "source": "paper PMC4002121",
  "about": "“Trimethylation of Histone H3 Lysine 36 by Human Methyltransferase PRDM9 Protein” (The Journal of Biological Chemistry, 2014)",
  "key": {"PRDM9 [1]": {"target": "T1, PRDM9 (Homo sapiens, UniProt Q9NQV7)", "T1 construct": "The wild-type PRDM9 gene (amino acids 195–385) was amplified by PCR; His tag (cleaved yes); made in house; host or cells: E. coli BL21(DE3)pRARE2-V2R", "T1 sequence (Q9NQV7 195-385)": "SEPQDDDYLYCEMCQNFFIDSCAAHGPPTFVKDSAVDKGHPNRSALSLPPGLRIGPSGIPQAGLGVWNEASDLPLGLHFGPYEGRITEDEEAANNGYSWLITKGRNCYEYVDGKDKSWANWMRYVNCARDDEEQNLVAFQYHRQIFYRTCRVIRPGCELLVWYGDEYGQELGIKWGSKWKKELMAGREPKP", "test": "Isothermal titration calorimetry (ITC) binding to PRDM9", "conditions": "AdoMet 1 mM injected into 50 μM PRDM9, 25 °C, 20 mM Tris-HCl pH 8.5, one-binding site model", "protocol": "Purified PRMD9 was dialyzed overnight in 20 mM Tris-HCl buffer, pH 8.5. […] ITC titrations were performed on a VP-ITC Micro Calorimeter from GE Healthcare at 25 °C by using 10-μl injections with a total of 25 injections. Data were fitted with a one-binding site model using Microcal Origin software.\nFIGURE 7. […] Experiments were performed in duplicate."}, "PRDM9 [2]": {"target": "T1, PRDM9", "test": "Assay optimization: effect of pH, salt and additives on PRDM9 activity", "assay_type": "biochemical", "protocol": "Samples were incubated for 1 h at 23 °C and reactions were quenched by addition of 20 μl of 7.5 M guanidinium hydrochloride followed by addition of 160 μl of 20 mM Tris-HCl buffer, pH 8.0. Samples were added to wells of a streptavidin/scintillant-coated microplate (FlashPlate® PLUS: PerkinElmer Life Sciences).\nFIGURE 3."}, "PRDM9 [3]": {"target": "T1, PRDM9", "test": "Screening PRDM9 against known histone methyltransferase inhibitor library", "assay_type": "biochemical", "conditions": "2.5 μM H3K36me2 peptide, 62 μM AdoMet, 1 nM PRDM9, 10 mM Tris-HCl pH 8.5, 10 mM DTT, 0.01% Triton X-100, 1% DMSO, 30 min, 23 °C; triplicate", "protocol": "The Z-factor was determined to ensure the optimized assay was amenable to high-throughput screening in a 384-well format ([46]). […] PRDM9 was then screened against a small library of known histone methyltransferase inhibitors using H3K36me2 as substrate under optimized assay conditions. In this assay, 1 nM PRDM9 was incubated with 2.5 μM H3K36me2 peptide, 62 μM AdoMet in a reaction buffer (10 mM Tris-HCl, pH 8.5, 10 mM DTT, 0.01% Triton X-100) along with compounds ranging in concentrations from 0 to 100 μM, with a final DMSO concentration of 1%. Reactions were incubated at 23 °C for 30 min. The IC50 value was determined for suramin using SigmaPlot.\nFIGURE 5. […] Experiments were performed in triplicate as described under “Experimental Procedures.”"}, "PRDM9 [4]": {"system": "PRDM9", "conditions": "cited from earlier work", "text": "Although PRDM9 H3K4 methyltransferase activity has been previously reported ([28]), to our knowledge its activity and substrate specificity have not been fully characterized. […] Our binding data also indicated tight H3K4 peptide binding (low micromolar). Previously, Hayashi et al. ([28]) reported that GST-PRDM9 specifically catalyzed met ..."}, "PRDM9 [5]": {"target": "T1, PRDM9", "test": "PRDM9 substrate specificity, radioactivity-based histone peptide methylation assay", "assay_type": "biochemical", "conditions": "10 μM biotinylated peptide, 200 μM AdoMet, 1 nM PRDM9, 10 mM Tris-HCl pH 8.5, 0.01% Triton X-100, 10 mM DTT, 30 min, 23 °C; n = 4", "protocol": "In this assay [^3H]AdoMet (PerkinElmer Life Sciences; catalog number NET155V250UC) was used as a methyl donor to methylate biotinylated histone peptide substrates. […] Samples were incubated for 30 min at 23 °C and the reaction was quenched by addition of 20 μl of 7.5 M guanidinium hydrochloride followed by addition of 160 μl of 20 mM Tris-HCl buffer, pH 8.0. Samples were added to wells of a streptavidin/scintillant-coated microplate (FlashPlate® PLUS; PerkinElmer Life Sciences). Biotinylated peptides would be captured in each well through their interaction with streptavidin, thereby bringing any incorporated [^3H]methyl in proximity of scintillant.\nFIGURE 1. […] Data are presented as mean ± S.D. from four experiments."}, "HEK293 cells": {"system": "HEK293 cells", "test": "H3K4 and H3K36 methylation in HEK293 cells overexpressing PRDM9, immunoblotting", "assay_type": "cell-based, human", "conditions": "normalized to total H3", "protocol": "A FLAG-tagged control vector or FLAG-tagged PRDM9 construct were transfected into HEK293 cells using GeneJuice (Novagen). Transfected cells were serum-deprived prior to lysis in 50 mM Tris-HCl, 400 mM NaCl, 1 mM EDTA, 0.1% SDS, and 1% Triton X-100 supplemented with protease inhibitors. 30 μg of total cell lysate were processed for Western blotting and immunoblotted using specific antibodies to monitor the levels of H3K36me1 (Abcam, ab9048), H3K36me2 (Cell signaling Technology, 2901), H3K36me3 (Cell Signaling Technology, number 9763), H3K4me1 (Cell Signaling Technology, 9723), H3K4me2 (Abcam, ab32356), H3K4me3 (Cell Signaling Technology, number 9727S), and total H3 (Abcam, ab10799). The transfection efficiency of FLAG-PRDM9 was controlled by using an anti-FLAG antibody (FLAG M2 monoclonal, Sigma). Membrane bands were visualized using LiCor IRDye, 680RD anti-rabbit and 800CW anti-mouse secondary antibodies.\nFIGURE 8. Trimethylation of H3K4 and H3K36 by PRDM9 in cells. […] Methylation levels of Lys-4 and Lys-36 were quantified and normalized to their respective total H3 levels. FLAG-PRDM9-transfected samples were normalized to samples transfected with FLAG Control vector. IB, immunoblot; CTL, control."}, "sterile mouse hybrids": {"system": "sterile mouse hybrids", "conditions": "via baculovirus; cited from earlier work", "text": "PRDM9 is a PR domain-containing protein with multiple zinc fingers that catalyze trimethylation of H3K4 ([28]). It is a meiosis-specific protein that has been reported to control activation of the short highly recombinogenic segments called recombination hot spots ([50]). The H3K4me3 mark is often associated with transcriptional activation ([51], [52]) and DNA repair ([53]). This methyl mark is also associated with recombination hot spot initiation in yeast and mice ([35], [36]) where double strand breaks occur prior to crossover events. However, H3K4me3 marks associated with hot spots are dis ..."}, "[6]": {"conditions": "H3-(1–25) substrate 10 μM, 40 μM AdoMet, 100 nM PRDM9, 10 mM Tris-HCl pH 8.5, 1 h, 23 °C, n = 4"}, "[7]": {"conditions": "H3-(1–25) substrate, 10 mM Tris-HCl pH 8.5"}},
  "note": "Entries after “also recorded” stand apart in the source; their conditions may differ.",
  "data": [
    {"compound": "C[S+](CC[C@H](N)C(=O)[O-])C[C@H]1O[C@@H](n2cnc3c(N)ncnc32)[C@H](O)[C@@H]1O", "note": "(stereo partly shown) [AdoMet, S-adenosylmethionine]", "values": [
      {"measurement": "Kd", "setting": "PRDM9 [1]", "result": 18.6, "unit": "µM"}
    ]},
    {"compound": "C[S+](C)[O-]", "note": "[DMSO, dimethyl sulfoxide]", "values": [
      {"measurement": "effect on PRDM9 activity (in words)", "setting": "PRDM9 [2]; [6]", "result": "maintained high levels of activity at all concentrations of DMSO"},
      {"measurement": "DMSO concentration of maximum PRDM9 activity", "setting": "PRDM9 [2]; [7]", "result": 0.16, "unit": "%"}
    ]},
    {"compound": "O[C@@H](CS)[C@@H](O)CS", "note": "[DTT]", "values": [
      {"measurement": "effect on PRDM9 activity (in words)", "setting": "PRDM9 [2]; [6]", "result": "increase in enzyme activity"},
      {"measurement": "concentration of maximal PRDM9 activity (reducing agent)", "setting": "PRDM9 [2]; [7]", "result": 10, "unit": "mM"}
    ]},
    {"compound": "[Cl-].[Na+]", "note": "[NaCl]", "values": [
      {"measurement": "NaCl concentration above which enzyme activity was abolished", "setting": "PRDM9 [2]; [6]", "result": "above 125 mM"},
      {"measurement": "effect on PRDM9 activity (in words)", "setting": "PRDM9 [2]; [6]", "result": "sharp decrease in activity with increasing NaCl concentrations"}
    ]},
    {"compound": "O=C(O)CCP(CCC(=O)O)CCC(=O)O", "note": "[TCEP, Tris(2-carboxyethyl)phosphine]", "values": [
      {"measurement": "effect on PRDM9 activity (in words)", "setting": "PRDM9 [2]; [6]", "result": "sharp decrease in activity at increasing TCEP concentrations"},
      {"measurement": "concentration of maximal PRDM9 activity (reducing agent)", "setting": "PRDM9 [2]; [7]", "result": 0.6, "unit": "mM"}
    ]},
    {"compound": "Cc1ccc(C(=O)Nc2ccc(S(=O)(=O)O)c3cc(S(=O)(=O)O)cc(S(=O)(=O)O)c23)cc1NC(=O)c1cccc(NC(=O)Nc2cccc(C(=O)Nc3cc(C(=O)Nc4ccc(S(=O)(=O)O)c5cc(S(=O)(=O)O)cc(S(=O)(=O)O)c45)ccc3C)c2)c1", "note": "[suramin]", "values": [
      {"measurement": "IC50", "setting": "PRDM9 [3]", "result": "4.1 ± 0.1", "unit": "µM"}
    ]},
    {"compound": "H3-(26–45): histone H3-(26–45) peptide on a peptide array", "values": [
      {"measurement": "binding of PRDM9 to peptide on a peptide array (in words)", "setting": "PRDM9 [4]", "result": "Binding"}
    ]},
    {"compound": "H3K36A: H3-(21–44) peptide with Lys-36 mutated to alanine", "values": [
      {"measurement": "PRDM9 methyltransferase activity with substrate (in words)", "setting": "PRDM9 [5]", "result": "not when Lys-36 was trimethylated or mutated to alanine"}
    ]},
    {"compound": "K4A: K4A mutant of H3-(1–25) peptide", "values": [
      {"measurement": "PRDM9 methyltransferase activity with substrate (in words)", "setting": "PRDM9 [5]", "result": "No activity"}
    ]},
    {"compound": "K4AK9A: K4AK9A mutant of H3-(1–25) peptide", "values": [
      {"measurement": "PRDM9 methyltransferase activity with substrate (in words)", "setting": "PRDM9 [5]", "result": "No activity"}
    ]},
    {"compound": "PRDM9: PR domain-containing protein 9, histone methyltransferase; FLAG-tagged in cells, residues 195–385 in vitro", "values": [
      {"measurement": "mono- or dimethylation of H3K4 and H3K36 in cells (in words)", "setting": "HEK293 cells; HEK293 cells overexpressing PRDM9", "result": "not mono- or dimethylation of either mark"},
      {"measurement": "trimethylation of H3K4 and H3K36 in cells (in words)", "setting": "HEK293 cells; HEK293 cells transfected with FLAG-PRDM9 vs FLAG control vector", "result": "significant increase in trimethylation of H3K4 and H3K36; also recorded: significant increase in H3K36 trimethylation as well as H3K4 trimethylation"},
      {"measurement": "effect on sterile phenotype of mouse hybrids (in words)", "setting": "sterile mouse hybrids", "result": "rescued the sterile phenotype"}
    ]},
    {"compound": "Triton X-100", "values": [
      {"measurement": "effect on PRDM9 activity (in words)", "setting": "PRDM9 [2]; [6]", "result": "Higher concentrations of Triton X-100 up to 0.25% did not further increase the activity"},
      {"measurement": "Triton X-100 concentration that dramatically improved signal to noise ratio", "setting": "PRDM9 [2]; concentrations as low as, H3-(1–25) substrate, 10 mM Tris-HCl pH 8.5", "result": "≥ 0.004", "unit": "%"}
    ]}
  ]
}
